Experimental data published in patent publication US20250312352A1, “GLP-1R MODULATING COMPOUNDS” (Gilead Sciences, Inc., priority 2021, published 2025).

target: T1, GLP-1R (Homo sapiens, UniProt P43220); assay: GLP-1R activation cAMP assay (Assay 1 or Assay 2); format: cell-based; conditions: cAMP increase in CHO cells stably expressing GLP-1R; compounds run on one of the two cAMP assays
T1 construct: host or cells: CHO cells
How it was run: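 EC50 values come from a sigmoidal fit of HTRF-detected cAMP rise versus log agonist concentration. GLP-1R-expressing CHO cells, equilibrated 1 h at 37 °C in HBSS with HEPES and BSA, received a 10-point compound dose series for 30 min before detection.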

T1 sequence (P43220 24-463): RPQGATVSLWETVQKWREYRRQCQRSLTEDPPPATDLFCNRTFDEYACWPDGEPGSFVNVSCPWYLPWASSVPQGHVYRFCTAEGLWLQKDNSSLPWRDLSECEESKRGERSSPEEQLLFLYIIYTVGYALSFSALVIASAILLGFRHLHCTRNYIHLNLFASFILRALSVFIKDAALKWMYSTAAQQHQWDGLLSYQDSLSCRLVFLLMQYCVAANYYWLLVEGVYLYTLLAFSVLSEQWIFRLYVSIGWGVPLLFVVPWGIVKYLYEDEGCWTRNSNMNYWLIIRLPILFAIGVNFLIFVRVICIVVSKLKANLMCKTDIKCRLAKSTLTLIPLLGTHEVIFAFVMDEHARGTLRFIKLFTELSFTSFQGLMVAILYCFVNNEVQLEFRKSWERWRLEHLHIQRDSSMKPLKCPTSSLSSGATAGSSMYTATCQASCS

Structure (SMILES)	EC50
Cn1nc(COc2cccc(-c3cc(F)c(Cc4nc5ccc(C(=O)O)cc5n4C[C@@H]4CCO4)cc3F)n2)cc1C(F)(F)F [Example 71, (S)-2-(2,5-difluoro-4-(6-((1-methyl-5-(trifluoromethyl)-1H-pyrazol-3-yl)methoxy)pyridin-2-yl)benzyl)-1-(oxetan-2-ylmethyl)-1H-benzo[d]imidazole-6-carboxylic acid]	0.29 nM
Cc1cc(COc2cccc(-c3cc(F)c(Cc4nc5ccc(C(=O)O)cc5n4C[C@@H]4CCO4)cc3F)n2)nn1C [Example 72, (S)-2-(4-(6-((1,5-dimethyl-1H-pyrazol-3-yl)methoxy)pyridin-2-yl)-2,5-difluorobenzyl)-1-(oxetan-2-ylmethyl)-1H-benzo[d]imidazole-6-carboxylic acid]	0.82 nM
Cn1nc(COc2cccc(-c3cc(F)c(Cc4nc5ccc(C(=O)O)cc5n4C[C@@H]4CCO4)cc3F)n2)c2c1CCC2 [Example 73, (S)-2-(2,5-difluoro-4-(6-((1-methyl-1,4,5,6-tetrahydrocyclopenta[c]pyrazol-3-yl)methoxy)pyridin-2-yl)benzyl)-1-(oxetan-2-ylmethyl)-1H-benzo[d]imidazole-6-carboxylic acid]	1.1 nM
O=C(O)c1ccc2nc(Cc3cc(F)c(-c4cccc(OCc5cc6n(n5)CC(F)(F)C6)n4)cc3F)n(C[C@@H]3CCO3)c2c1 [Example 74, (S)-2-(4-(6-((5,5-difluoro-5,6-dihydro-4H-pyrrolo[1,2-b]pyrazol-2-yl)methoxy)pyridin-2-yl)-2,5-difluorobenzyl)-1-(oxetan-2-ylmethyl)-1H-benzo[d]imidazole-6-carboxylic acid]	0.25 nM
O=C(O)c1ccc2nc(Cc3cc(F)c(-c4cccc(OCc5cc6n(n5)CC5(CC5)C6)n4)cc3F)n(C[C@@H]3CCO3)c2c1 [Example 75, (S)-2-(4-(6-((4′,6′-dihydrospiro[cyclopropane-1,5′-pyrrolo[1,2-b]pyrazol]-2′-yl)methoxy)pyridin-2-yl)-2,5-difluorobenzyl)-1-(oxetan-2-ylmethyl)-1H-benzo[d]imidazole-6-carboxylic acid]	0.61 nM
CCn1cc(Cl)c(COc2cccc(-c3cc(F)c(Cc4nc5ccc(C(=O)O)cc5n4C[C@@H]4CCO4)cc3F)n2)n1 [Example 76, (S)-2-(4-(6-((4-chloro-1-ethyl-1H-pyrazol-3-yl)methoxy)pyridin-2-yl)-2,5-difluorobenzyl)-1-(oxetan-2-ylmethyl)-1H-benzo[d]imidazole-6-carboxylic acid]	4.23 nM
Cc1cn(C)nc1COc1cccc(-c2cc(F)c(Cc3nc4ccc(C(=O)O)cc4n3C[C@@H]3CCO3)cc2F)n1 [Example 77, (S)-2-(4-(6-((1,4-dimethyl-1H-pyrazol-3-yl)methoxy)pyridin-2-yl)-2,5-difluorobenzyl)-1-(oxetan-2-ylmethyl)-1H-benzo[d]imidazole-6-carboxylic acid]	6.32 nM
Cn1cc(Cl)c(COc2cccc(-c3cc(F)c(Cc4nc5ccc(C(=O)O)cc5n4C[C@@H]4CCO4)cc3F)n2)n1 [Example 78, (S)-2-(4-(6-((4-chloro-1-methyl-1H-pyrazol-3-yl)methoxy)pyridin-2-yl)-2,5-difluorobenzyl)-1-(oxetan-2-ylmethyl)-1H-benzo[d]imidazole-6-carboxylic acid]	9.4 nM
Cn1cc(-c2cnc(COc3cccc(-c4cc(F)c(Cc5nc6ccc(C(=O)O)cc6n5C[C@@H]5CCO5)cc4F)n3)s2)cn1 [Example 79, 2-[[2,5-difluoro-4-[6-[[5-(1-methylpyrazol-4-yl)thiazol-2-yl]methoxy]-2-pyridyl]phenyl]methyl]-3-[[(2S)-oxetan-2-yl]methyl]benzimidazole-5-carboxylic acid]	0.06 nM
O=C(O)c1ccc2nc(Cc3cc(F)c(-c4cccc(OCc5ncc(-c6cnn(C7COC7)c6)s5)n4)cc3F)n(C[C@@H]3CCO3)c2c1 [Example 80, (S)-2-(2,5-difluoro-4-(6-((5-(1-(oxetan-3-yl)-1H-pyrazol-4-yl)thiazol-2-yl)methoxy)pyridin-2-yl)benzyl)-1-(oxetan-2-ylmethyl)-1H-benzo[d]imidazole-6-carboxylic acid]	0.19 nM
